Measurements reported in patent US11447529B2, “Microcin MccY, and preparation method and use thereof” (South China Agricultural University, priority 2021, dated 2022).

Tests used:
Test in all cases: Bacteriostatic ring test on double-layer agar
Format in all cases: cell-based
[1] = test system: Salmonella kentucky (strain name: BNCC239114); conditions: 50 μL filtrate (combination 25 uL + 25 uL), double-layer LB agar, 37° C., 18 h; FIG. 2
Method: (§1) Salmonella kentucky (strain name: BNCC239114), Salmonella Infantis (strain name: CMCC50041) and Salmonella london (strain name: CVCC2206) were respectively resuscitated in a LB agar plate (with the formula as shown in Table 4) (cultured in a 5% CO2 incubator at 37° C. for 16 h). Single colonies were picked and subjected to shaking culture until OD600=0.8. The bacterial solution was inoculated into a soft agar medium containing 5% LB (with the formula as shown in Table 5) at about 42° C. in a proportion of 1:1,000, and then spread onto a LB agar plate to form an upper and lower double-layer agar medium. 30 min later, after the soft agar was cooled and solidified, a mixed solution of 50 μL of the filtrate obtained in Example 1 (the Microcin MccY), 50 μL of the filtrate obtained in Example 2, 50 μL of the filtrate obtained in Example 3 (the Microcin MccJ25), 25 uL of the filtrate obtained in Example 1 (the Microcin MccY) and 25 uL of the filtrate obtained in Example 3 (the Microcin MccJ25) was taken and added into the upper and lower double-layer agar medium containing […]. The upper and lower double-layer agar medium was then placed into a 5% CO2 bacterial incubator at 37° C. for static culture for 18 h, and then observed for a bacteriostatic ring.

[2] = test system: Salmonella london (strain name: CVCC2206); conditions: 50 μL filtrate (combination 25 uL + 25 uL), double-layer LB agar, 37° C., 18 h; FIG. 2
Method: as §1

[3] = test system: Salmonella Infantis (strain name: CMCC50041); conditions: 50 μL filtrate (combination 25 uL + 25 uL), double-layer LB agar, 37° C., 18 h; FIG. 2
Method: as §1

[4] = test system: Salmonella enteritidis (strain name: CVCC3377); conditions: 50 μL filtrate (combination 25 uL + 25 uL), double-layer LB agar, 37° C., 18 h; FIG. 1
Method: as §1, with “Pullorum” for “kentucky”, “CVCC1800),” for “BNCC239114),”, “enteritidis” for “Infantis”, “CVCC3377)” for “CMCC50041)”, “typhimurium” for “london”, “ATCC14028)” for “CVCC2206)”

[5] = test system: Salmonella typhimurium (strain name: ATCC14028); conditions: 50 μL filtrate (combination 25 uL + 25 uL), double-layer LB agar, 37° C., 18 h; FIG. 1
Method: as §1, with “Pullorum” for “kentucky”, “CVCC1800),” for “BNCC239114),”, “enteritidis” for “Infantis”, “CVCC3377)” for “CMCC50041)”, “typhimurium” for “london”, “ATCC14028)” for “CVCC2206)”

[6] = test system: Salmonella Pullorum (strain name: CVCC1800); conditions: 50 μL filtrate (combination 25 uL + 25 uL), double-layer LB agar, 37° C., 18 h; FIG. 1
Method: as §1, with “Pullorum” for “kentucky”, “CVCC1800),” for “BNCC239114),”, “enteritidis” for “Infantis”, “CVCC3377)” for “CMCC50041)”, “typhimurium” for “london”, “ATCC14028)” for “CVCC2206)”

[7] = test system: Shigella sonnei (strain name: CMCC51592); conditions: 50 μL filtrate, double-layer LB agar, 37° C., 18 h; FIG. 3
Method: (§2) Shigella flexneri (strain name: CMCC51572) and Shigella sonnei (strain name: CMCC51592) were respectively resuscitated in a LB agar plate (with the formula as shown in Table 4) (cultured in a 5% CO2 incubator at 37° C. for 16 h). Single colonies were picked and subjected to shaking culture until OD600=0.8. The bacterial solution was inoculated into a soft agar medium containing 5% LB (with the formula as shown in Table 5) at about 42° C. in a proportion of 1:1,000, and then spread onto a LB agar plate to form an upper and lower double-layer agar medium. 30 min later, after the soft agar was cooled and solidified, each 50 μL of the filtrate obtained in Example 1 (the Microcin MccY) and methanol were respectively taken and added into the upper and lower double-layer agar medium containing Shigella flexneri and Shigella sonnei (the control group was added with the same amount of the filtrate obtained in Example 2). The upper and lower double-layer agar medium was then placed into a 5% CO2 bacterial incubator at 37° C. for static culture for 18 h, and then observed for a bacteriostatic ring.

[8] = test system: Shigella flexneri (strain name: CMCC51572); conditions: 50 μL filtrate, double-layer LB agar, 37° C., 18 h; FIG. 3
Method: as §2

Row | Substance | bacteriostatic effect (bacteriostatic ring) against Salmonella kentucky [1] | bacteriostatic effect (bacteriostatic ring) against Salmonella london [2] | bacteriostatic effect (bacteriostatic ring) against Salmonella Infantis [3] | bacteriostatic effect (bacteriostatic ring) against Salmonella enteritidis [4] | bacteriostatic effect (bacteriostatic ring) against Salmonella typhimurium [5] | bacteriostatic effect (bacteriostatic ring) against Salmonella Pullorum [6] | bacteriostatic effect (bacteriostatic ring) against Shigella sonnei [7] | bacteriostatic effect (bacteriostatic ring) against Shigella flexneri [8]
1 | MccJ25: Known Microcin MccJ25 (SEQ ID NO.10); tested as filtrate expressed by pET-28a(+)-MccJ25-containing BL21(DE3) bacteria (GGAGHVPEYFVGIGTPISFYG; Primer) [reference compound] | no inhibitory effect | no inhibitory effect | no inhibitory effect | inhibitory effect |  |  |  | 
2 | MccY: Microcin with amino acid sequence GGRGHIAEYFSGPITQVSFYG (SEQ ID NO.1); tested as filtrate expressed by pET-28a(+)-MccY-containing BL21(DE3) bacteria (Primer) | inhibitory effects | inhibitory effects | inhibitory effects |  | inhibitory effects | inhibitory effects | sensitive | not sensitive
